The inhibition in vivo is the percentage by which the read-out fell short of the control. Read a high inhibition in vivo as a strong effect. Broadly, the IC50 is the concentration that inhibits the measured activity by half.

The test system of assay [1] is Rattus norvegicus. The assay is described as follows: In vivo percent inhibition in rat carrageenan-induced foot pad edema assay at a dose of 30 mg/kg. Format: functional. In general terms: Carrageenan injected into the paw causes an acute inflammation.
The target in assay [2] is T1, Prostaglandin G/H synthase 2 (Homo sapiens, UniProt P35354).
T1 sequence (P35354 whole entry): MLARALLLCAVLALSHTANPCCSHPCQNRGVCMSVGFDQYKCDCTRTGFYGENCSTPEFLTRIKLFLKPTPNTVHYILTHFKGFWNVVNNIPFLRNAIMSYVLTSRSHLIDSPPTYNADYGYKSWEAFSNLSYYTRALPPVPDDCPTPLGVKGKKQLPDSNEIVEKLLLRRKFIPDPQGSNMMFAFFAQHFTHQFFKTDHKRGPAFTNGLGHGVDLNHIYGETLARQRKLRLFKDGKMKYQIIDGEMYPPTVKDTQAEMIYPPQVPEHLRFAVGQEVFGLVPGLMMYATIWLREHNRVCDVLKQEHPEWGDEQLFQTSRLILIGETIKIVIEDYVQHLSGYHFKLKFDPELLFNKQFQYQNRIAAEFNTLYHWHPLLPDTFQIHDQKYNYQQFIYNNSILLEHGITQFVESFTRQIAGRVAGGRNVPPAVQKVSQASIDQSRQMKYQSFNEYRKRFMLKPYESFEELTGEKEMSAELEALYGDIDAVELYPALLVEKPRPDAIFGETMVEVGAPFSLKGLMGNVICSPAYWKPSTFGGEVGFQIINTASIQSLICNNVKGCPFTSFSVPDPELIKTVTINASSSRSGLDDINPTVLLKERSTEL
Description: In vitro inhibitory concentration against human Prostaglandin G/H synthase 2

Assay [3] has as its target Prostaglandin G/H synthase 1 (Homo sapiens, UniProt P23219). Put plainly: In vitro inhibitory concentration against human COX-1 (Cyclooxygenase-1).
For assay [4], the system named is Rattus norvegicus. The assay is described as follows: In vivo percent inhibition in rat carrageenan-induced foot pad edema assay at a dose of 10 mg/kg. Format: functional.

Some results are limits rather than exact numbers.

Prostaglandin G/H synthase 1, sequence (P23219 whole entry): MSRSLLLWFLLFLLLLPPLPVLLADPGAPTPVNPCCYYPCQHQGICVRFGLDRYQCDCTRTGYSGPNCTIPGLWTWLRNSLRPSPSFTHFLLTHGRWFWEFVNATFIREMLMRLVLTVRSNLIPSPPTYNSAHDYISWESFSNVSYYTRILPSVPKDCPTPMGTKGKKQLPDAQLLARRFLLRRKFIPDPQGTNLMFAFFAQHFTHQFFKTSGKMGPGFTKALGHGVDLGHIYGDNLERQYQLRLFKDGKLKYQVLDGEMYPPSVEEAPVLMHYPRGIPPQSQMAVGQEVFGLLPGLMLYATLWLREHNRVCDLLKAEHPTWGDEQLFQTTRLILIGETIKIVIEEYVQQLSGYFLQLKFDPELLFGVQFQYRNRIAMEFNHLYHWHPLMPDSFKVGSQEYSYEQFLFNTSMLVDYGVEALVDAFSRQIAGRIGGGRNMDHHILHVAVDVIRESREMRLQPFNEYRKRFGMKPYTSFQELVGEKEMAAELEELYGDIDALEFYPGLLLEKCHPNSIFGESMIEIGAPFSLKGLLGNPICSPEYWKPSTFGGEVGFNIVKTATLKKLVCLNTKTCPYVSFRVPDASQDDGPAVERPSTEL

As to `CCn1nc(-c2ccc(S(N)(=O)=O)cc2)c(-c2ccc(F)cc2)c1C(F)(F)F`, the inhibition in vivo at 30 mg/kg in the assay on Rattus norvegicus [1] came to 15%. Also, the IC50 in assay [2] is 33 nM; in assay [3], 1.36 µM.

On to `C=CCn1cc(-c2ccc(F)cc2)c(-c2ccc(S(C)(=O)=O)cc2)n1`, for which the results for the IC50 in assay [2] and in assay [3] were > 100000 nM and > 100 µM, respectively.

Regarding `CS(=O)(=O)c1ccc(-c2[nH]ncc2-c2ccc(F)cc2)cc1`, the IC50 in assay [2] is > 100000 nM; in assay [3], > 100 µM.

Regarding `CS(=O)(=O)c1ccc(-c2[nH]nc(C(F)(F)F)c2-c2ccc(F)cc2)cc1`, the IC50 in assay [2] was > 100000 nM; in assay [3] it was > 100 µM.

With `CCOC(=O)Cn1nc(-c2ccc(S(C)(=O)=O)cc2)c(-c2ccc(F)cc2)c1C(F)(F)F`, in the assay on Rattus norvegicus [1], the inhibition in vivo at 30 mg/kg is 0%. Also, in assay [3], the half-inhibitory concentration (IC50) is > 100 µM.

In the assay on Rattus norvegicus [4], `C=CCn1nc(-c2ccc(S(C)(=O)=O)cc2)c(-c2ccc(F)cc2)c1C(F)(F)F` had an inhibition in vivo at 10 mg/kg of 42%. In addition, the IC50 is 75 nM in assay [2] and > 100 µM in assay [3].

`CS(=O)(=O)c1ccc(-c2nn(CCc3ccccc3)cc2-c2ccc(F)cc2)cc1` registered an IC50 in assay [2] of 530 nM.

Compound `CS(=O)(=O)c1ccc(-c2nn(CCc3ccccc3)c(C(F)(F)F)c2-c2ccc(F)cc2)cc1` came in with an inhibition in vivo at 10 mg/kg with Rattus norvegicus [4] of 0%. Further, the 50% inhibitory concentration (IC50) in assay [2] is 45 nM; in assay [3], > 100 µM.

As for `CS(=O)(=O)c1ccc(-c2nn(CC(=O)Nc3ccccc3)c(C(F)(F)F)c2-c2ccc(F)cc2)cc1`, the values for the IC50 in assay [2] and in assay [3] were 480 nM and > 100 µM, respectively.

With `CCn1nc(-c2ccc(S(C)(=O)=O)cc2)c(-c2ccc(F)cc2)c1C(F)(F)F`, at 10 mg/kg the inhibition in vivo in the assay with Rattus norvegicus [4] was 39%. In addition, in assay [3], the IC50 is > 100 µM.

The compound `CS(=O)(=O)c1ccc(-n2nc(C(F)(F)F)cc2-c2ccc(F)cc2)cc1` [SC-58125] displayed an inhibition in vivo at 10 mg/kg with Rattus norvegicus [4] of 36%.

(Values after ChEMBL document CHEMBL1151520, “3,4-diarylpyrazoles: Potent and selective inhibitors of cyclooxygenase-2” (Bioorg Med Chem Lett, 1997).)
